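Results reflect a 48-hour exposure of cells in 96-well plates to compound at five concentrations. GI50: concentration for 50% inhibition of growth. TGI: concentration producing complete growth inhibition.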
Legend:
Experiment in all cases: inhibition of tumour cell growth, NCI panel, 48 h
SNB-19 CNS = test system: SNB-19 CNS
ACHN renal = test system: ACHN renal
OVCAR-5 ovarian = test system: OVCAR-5 ovarian
RPMI-8226 leukemia = test system: RPMI-8226 leukemia
SK-OV-3 ovarian = test system: SK-OV-3 ovarian
HL-60(TB) leukemia = test system: HL-60(TB) leukemia
SN12C renal = test system: SN12C renal
MDA-MB-231 breast = test system: MDA-MB-231 breast
MCF7 breast = test system: MCF7 breast
UO-31 renal = test system: UO-31 renal
SF-539 CNS = test system: SF-539 CNS
TK-10 renal = test system: TK-10 renal
HCC-2998 colon = test system: HCC-2998 colon
SK-MEL-28 melanoma = test system: SK-MEL-28 melanoma
EKVX NSCLC = test system: EKVX NSCLC
BT-549 breast = test system: BT-549 breast
IGROV1 ovarian = test system: IGROV1 ovarian
786-0 renal = test system: 786-0 renal
NCI-H460 lung = test system: NCI-H460 lung
LOX IMVI melanoma = test system: LOX IMVI melanoma
MDA-MB-435 = test system: MDA-MB-435
HOP-92 NSCLC = test system: HOP-92 NSCLC
T-47D breast = test system: T-47D breast
SF-295 CNS = test system: SF-295 CNS
HOP-62 NSCLC = test system: HOP-62 NSCLC
UACC-62 melanoma = test system: UACC-62 melanoma
OVCAR-4 ovarian = test system: OVCAR-4 ovarian
NCI-H522 lung = test system: NCI-H522 lung
HCT-116 colon = test system: HCT-116 colon
MOLT-4 leukemia = test system: MOLT-4 leukemia
A498 renal = test system: A498 renal
DU-145 prostate = test system: DU-145 prostate
HCT-15 colon = test system: HCT-15 colon
U251 CNS = test system: U251 CNS
RXF 393 renal = test system: RXF 393 renal
SR leukemia = test system: SR leukemia
SK-MEL-5 melanoma = test system: SK-MEL-5 melanoma
SK-MEL-2 melanoma = test system: SK-MEL-2 melanoma
CAKI-1 renal = test system: CAKI-1 renal
HT29 colon = test system: HT29 colon
A549 NSCLC = test system: A549 NSCLC
M14 melanoma = test system: M14 melanoma
PC-3 prostate = test system: PC-3 prostate
MALME-3M melanoma = test system: MALME-3M melanoma
UACC-257 melanoma = test system: UACC-257 melanoma
NCI/ADR-RES ovarian = test system: NCI/ADR-RES ovarian
OVCAR-3 ovarian = test system: OVCAR-3 ovarian
K-562 leukemia = test system: K-562 leukemia
CCRF-CEM leukemia = test system: CCRF-CEM leukemia
KM12 colon = test system: KM12 colon
OVCAR-8 ovarian = test system: OVCAR-8 ovarian
HS 578T breast = test system: HS 578T breast

COc1ccc(-c2nc3cc(Cl)c(Cl)cc3n2CC(=O)N=Nc2c(O)[nH]c3ccc(Cl)cc23)cc1
GI50 (SNB-19 CNS): 2000 nM
TGI (SNB-19 CNS): 4210 nM
GI50 (ACHN renal): 1780 nM
TGI (ACHN renal): 3200 nM
GI50 (OVCAR-5 ovarian): 1910 nM
TGI (OVCAR-5 ovarian): 3780 nM
GI50 (RPMI-8226 leukemia): 2310 nM
TGI (RPMI-8226 leukemia): 6540 nM
GI50 (SK-OV-3 ovarian): 1640 nM
TGI (SK-OV-3 ovarian): 3240 nM
GI50 (HL-60(TB) leukemia): 4870 nM
TGI (HL-60(TB) leukemia): > 100000 nM
GI50 (SN12C renal): 1950 nM
TGI (SN12C renal): 3760 nM
GI50 (MDA-MB-231 breast): 1850 nM
TGI (MDA-MB-231 breast): 3970 nM
GI50 (MCF7 breast): 1830 nM
TGI (MCF7 breast): 3620 nM
GI50 (UO-31 renal): 1260 nM
TGI (UO-31 renal): 2530 nM
GI50 (SF-539 CNS): 1710 nM
TGI (SF-539 CNS): 3180 nM
GI50 (TK-10 renal): 2860 nM
TGI (TK-10 renal): 7070 nM
GI50 (HCC-2998 colon): 1920 nM
TGI (HCC-2998 colon): 3560 nM
GI50 (SK-MEL-28 melanoma): 1780 nM
TGI (SK-MEL-28 melanoma): 3250 nM
GI50 (EKVX NSCLC): 2120 nM
TGI (EKVX NSCLC): 4940 nM
GI50 (BT-549 breast): 2510 nM
TGI (BT-549 breast): 6440 nM
GI50 (IGROV1 ovarian): 1740 nM
TGI (IGROV1 ovarian): 3460 nM
GI50 (786-0 renal): 1800 nM
TGI (786-0 renal): 3280 nM
GI50 (NCI-H460 lung): 1860 nM
TGI (NCI-H460 lung): 3510 nM
GI50 (LOX IMVI melanoma): 1780 nM
TGI (LOX IMVI melanoma): 3330 nM
GI50 (MDA-MB-435): 1740 nM
TGI (MDA-MB-435): 3400 nM
GI50 (HOP-92 NSCLC): 1160 nM
TGI (HOP-92 NSCLC): 2770 nM
GI50 (T-47D breast): 1710 nM
TGI (T-47D breast): 3560 nM
GI50 (SF-295 CNS): 1940 nM
TGI (SF-295 CNS): 3600 nM
GI50 (HOP-62 NSCLC): 1610 nM
TGI (HOP-62 NSCLC): 3160 nM
GI50 (UACC-62 melanoma): 1700 nM
TGI (UACC-62 melanoma): 3390 nM
GI50 (OVCAR-4 ovarian): 1740 nM
TGI (OVCAR-4 ovarian): 3370 nM
GI50 (NCI-H522 lung): 1730 nM
TGI (NCI-H522 lung): 3720 nM
GI50 (HCT-116 colon): 1830 nM
TGI (HCT-116 colon): 3350 nM
GI50 (MOLT-4 leukemia): 4440 nM
TGI (MOLT-4 leukemia): > 100000 nM
GI50 (A498 renal): 1910 nM
TGI (A498 renal): 3550 nM
GI50 (DU-145 prostate): 1860 nM
TGI (DU-145 prostate): 3500 nM
GI50 (HCT-15 colon): 1920 nM
TGI (HCT-15 colon): 3880 nM
GI50 (U251 CNS): 1690 nM
TGI (U251 CNS): 3140 nM
GI50 (RXF 393 renal): 1720 nM
TGI (RXF 393 renal): 3170 nM
GI50 (SR leukemia): 3030 nM
TGI (SR leukemia): > 100000 nM
GI50 (SK-MEL-5 melanoma): 2000 nM
TGI (SK-MEL-5 melanoma): 4040 nM
GI50 (SK-MEL-2 melanoma): 1850 nM
TGI (SK-MEL-2 melanoma): 3620 nM
GI50 (CAKI-1 renal): 1500 nM
TGI (CAKI-1 renal): 2850 nM
GI50 (HT29 colon): 1830 nM
TGI (HT29 colon): 3500 nM
GI50 (A549 NSCLC): 1760 nM
TGI (A549 NSCLC): 3530 nM
GI50 (M14 melanoma): 1810 nM
TGI (M14 melanoma): 3500 nM
GI50 (PC-3 prostate): 1680 nM
TGI (PC-3 prostate): 3340 nM
GI50 (MALME-3M melanoma): 1760 nM
TGI (MALME-3M melanoma): 3370 nM
GI50 (UACC-257 melanoma): 1640 nM
TGI (UACC-257 melanoma): 3290 nM
GI50 (NCI/ADR-RES ovarian): 1840 nM
TGI (NCI/ADR-RES ovarian): 3790 nM
GI50 (OVCAR-3 ovarian): 1730 nM
TGI (OVCAR-3 ovarian): 3200 nM
GI50 (K-562 leukemia): 2430 nM
TGI (K-562 leukemia): 6220 nM
GI50 (CCRF-CEM leukemia): 3930 nM
TGI (CCRF-CEM leukemia): > 100000 nM
GI50 (KM12 colon): 2150 nM
TGI (KM12 colon): 5180 nM
GI50 (OVCAR-8 ovarian): 1760 nM
TGI (OVCAR-8 ovarian): 3290 nM
GI50 (HS 578T breast): 2120 nM
TGI (HS 578T breast): 5530 nM
